Assay results from patent US20250017889A1, “INHIBITORS OF P1B-TYPE ATPASES” (THE CURATORS OF THE UNIVERSITY OF MISSOURI, priority 2021, published 2025).

How the values were obtained:
in vitro = assay type: cell-based; conditions: mouse
Protocol: To test this hypothesis, a control compound was generated in which the sulfur atom in the thioamide was replaced with oxygen to generate a corresponding amide (MKV3-D1). […] 20C is a graph of the relationship between tyrosinase activity and compound concentration. […] 20D is a graph of the relationship between the survival of 4T1 breast cancer cells and compound concentration in the presence or absence of 10 μM copper.
Initial structural analysis focused on the importance of the sulfur in MKV3. […] It was thought that MKV3 may provide a coordinating Cu(I) ligand as a mechanism of preventing copper movement into the channel domain. To test this hypothesis, a control compound was generated in which the sulfur atom in the thioamide was replaced with oxygen to generate a corresponding amide (MKV3-D1). […] Using another assay of ATP7A inhibition, the ability of MKV3-D1 to sensitize 4T1 breast cancer cells to copper was tested.

[1] = tested on: wild type S. aureus (CopA and CopB); assay: Growth of wild type methicillin-resistant Staphylococcus aureus; assay type: cell-based
Protocol: Methicillin-resistant Staphylococcus aureus (MRSA) is a human pathogen that expresses two Cu-transporting P1B-type ATPases, CopA and CopB, which are known to enhance the virulence of this bacterium. 19A illustrates CopA and CopB copper exporters at the plasma membrane of S. aureus. […] The growth of the ΔcopA/ΔcopB strain was inhibited by approximately 50% when copper alone (50 μM) was added to the culture medium.
Wild type MRSA expresses two copper-exporting P1B-type ATPases, CopA and CopB that are required for copper tolerance (FIG. 19A). […] The same experiment was performed using MRSA in which both CopA and CopB genes were deleted (ΔcopA/ΔcopB). Consistent with the known role of CopA and CopB in copper tolerance, the growth of the ΔcopA/ΔcopB strain was inhibited by approximately 50% when copper alone (50 μM) was added to the culture medium (FIG. 19C).

4T1 cells = assay: Sensitivity of 4T1 cells to metal ions, crystal violet assay; assay type: cell-based
Protocol: All metals were added as chloride salts except silver, which was added as silver nitrate (AgNO3).

ATP7A(E1030K) = biological target: T1, ATP7A(E1030K) (Homo sapiens, UniProt Q04656, E1030K); assay: Microscale thermophoresis (MST) binding to GFP-ATP7A(E1030K) mutant; conditions: relative to wild type ATP7A
T1 construct: expressed in transfected cells; host or cells: HEK293 (detergent-free lysate)
T1 sequence (Q04656 1-1500 E1030K): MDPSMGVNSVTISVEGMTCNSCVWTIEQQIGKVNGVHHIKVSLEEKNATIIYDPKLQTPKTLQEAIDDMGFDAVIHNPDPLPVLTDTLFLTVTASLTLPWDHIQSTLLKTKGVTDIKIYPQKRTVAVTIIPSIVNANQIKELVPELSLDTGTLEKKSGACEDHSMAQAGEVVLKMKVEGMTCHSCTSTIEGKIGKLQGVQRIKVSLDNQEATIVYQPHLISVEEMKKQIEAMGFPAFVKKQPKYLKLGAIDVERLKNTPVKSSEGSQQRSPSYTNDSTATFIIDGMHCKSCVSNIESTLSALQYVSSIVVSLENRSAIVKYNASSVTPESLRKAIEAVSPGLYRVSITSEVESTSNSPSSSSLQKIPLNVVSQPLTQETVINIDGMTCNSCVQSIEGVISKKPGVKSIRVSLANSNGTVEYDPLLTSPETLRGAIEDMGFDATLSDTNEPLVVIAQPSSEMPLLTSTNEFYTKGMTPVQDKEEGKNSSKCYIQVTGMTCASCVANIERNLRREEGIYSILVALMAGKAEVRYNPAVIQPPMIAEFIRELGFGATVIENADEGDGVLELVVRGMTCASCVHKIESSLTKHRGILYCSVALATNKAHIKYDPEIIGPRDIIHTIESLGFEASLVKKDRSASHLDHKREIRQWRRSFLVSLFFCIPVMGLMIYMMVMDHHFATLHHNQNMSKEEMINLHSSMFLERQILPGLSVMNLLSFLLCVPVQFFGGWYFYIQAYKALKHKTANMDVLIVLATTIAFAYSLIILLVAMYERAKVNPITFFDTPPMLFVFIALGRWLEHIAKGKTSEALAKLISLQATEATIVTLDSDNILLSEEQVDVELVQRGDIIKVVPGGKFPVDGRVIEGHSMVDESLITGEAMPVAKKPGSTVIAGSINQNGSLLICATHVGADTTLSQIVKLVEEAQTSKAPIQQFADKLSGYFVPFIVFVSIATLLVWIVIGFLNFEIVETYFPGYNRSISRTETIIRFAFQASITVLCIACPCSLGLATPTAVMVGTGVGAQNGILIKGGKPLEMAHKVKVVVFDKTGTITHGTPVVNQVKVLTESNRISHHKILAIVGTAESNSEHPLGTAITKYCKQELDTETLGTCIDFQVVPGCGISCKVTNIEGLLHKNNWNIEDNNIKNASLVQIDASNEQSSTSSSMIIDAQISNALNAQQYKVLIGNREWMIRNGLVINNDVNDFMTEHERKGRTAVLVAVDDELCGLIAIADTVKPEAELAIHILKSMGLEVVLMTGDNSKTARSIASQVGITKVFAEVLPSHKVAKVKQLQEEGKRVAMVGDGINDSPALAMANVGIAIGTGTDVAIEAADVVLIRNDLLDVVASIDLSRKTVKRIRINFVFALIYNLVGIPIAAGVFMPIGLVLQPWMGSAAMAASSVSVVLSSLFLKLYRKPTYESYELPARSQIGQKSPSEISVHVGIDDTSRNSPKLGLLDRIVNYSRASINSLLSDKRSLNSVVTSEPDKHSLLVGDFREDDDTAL
Source text: 7A is a model of MKV3-coordinating residues in ATP7A which are identical to those of ATP7B except that the negatively charged glutamate at position 1030 (E1030) of ATP7A corresponds to a positively lysine at position 1013 (K1013) in ATP7B. […] To confirm this the E1030 residue in ATP7A was mutated to a lysine to generate an ATP7A(E1030K) mutant protein.

Compound: N#CC(C(=O)Nc1cccc(C(F)(F)F)c1)C(=S)Nc1ccccc1Cl (stereo not shown) [MKV3]
- CC50 (in vitro): 63.1 µM
- sensitivity of wild type S. aureus to silver [1]: increases the sensitivity
- growth of wild type S. aureus ([1]; MKV3 0.5 μM alone): not affected
- growth of wild type S. aureus ([1]; MKV3 0.5 μM and copper 50 μM in combination): significant inhibition of growth
- sensitivity to copper and silver (4T1 cells; 10 μM MKV3, 4T1 cells): conferred sensitivity to as little as 5 μM copper and silver
- sensitivity to other metals (4T1 cells; 10 μM MKV3, other metals up to 50 μM): did not affect the sensitivity
- increase of binding affinity by E1030K mutation in ATP7A (ATP7A(E1030K)): approximately 2.7 fold
